Source: patent US20090023810A1, “METHODS OF TRANSLATION AND/OR INFLAMMATION BLOCKADE” (priority 2007, published 2009)

Columns and labels:
HeLa cells [1] = assay: Stress granule (SG) formation in HeLa cells, immunocytochemistry; format: cell-based; conditions: HeLa
Method: The immunocytochemical analyses of proteins were performed as described elsewhere (Kim et al., 2005, which is hereby incorporated by reference for all purposes as if fully set forth herein).
HeLa cells that were mock-treated (Mock) or treated with PGA1, 15d-PGJ2, PGE2, SA, arachidonic acid (AA), ciglitazone (Ci), troglitazone (Tro), and rosiglitazone (Rosi) (at indicated concentrations) for 30 minutes.
HeLa cells were treated with lovastatin (100 μM), lipoxin A4 (LXA4, 10 μM), lipoxin B4 (LXB4, 10 μM), epi-lipoxin A4 (epi-LxA4, 10 μM), TGF-β (100 ng/ml), interleukin-10 (IL-10, 100 ng/ml) for 1 hour.
Emetine freezes ribosomes in the polysomal state and inhibits SG formation (Anderson and Kedersha, 2006). HeLa cells that were pretreated for 1 hour with 10 μg/ml of emetine and then treated with 15d-PGJ2 (50 μM) for 1 hour, and subjected to immunocytochemical analyses.
The amounts of 15d-PGJ2 required for SG formation were measured.

eIF4GI-eIF4A interaction = target: T1, eIF4GI-eIF4A interaction (Homo sapiens, UniProt P60842); assay: eIF4GI-eIF4A co-immunoprecipitation from 293T cell lysates; format: biochemical; conditions: 293T cell extract, 50 μM, 30° C., 1 hour, FIG. 7A
T1 construct: expressed in transfected cells; host or cells: 293T
Method: 293T cells transfected with DNAs were lysed using the NP-40 lysis buffer. The lysates were clarified by centrifugation at 14,000 g for 15 minutes. Anti-FLAG monoclonal antibody (4 μg) was incubated with 20 μl of Protein G-agarose (GE Healthcare) for 1 hour in 1 ml NP-40 lysis buffer at 4° C. Lysates were pre-cleared with 10 μl of protein G-agarose at 4° C. for 30 minutes. After pre-clearing, cell lysates were treated with 50 μM of EtOH, PGE2, or 15d-PGJ2 at 30° C. for 1 hour, followed by centrifugation. Then protein G agarose-conjugated antibodies were incubated with the pre-cleared lysates at 4° C. for 1 hour. Precipitates were washed three times with lysis buffer and analyzed by SDS-PAGE.
The mechanism by which 15d-PGJ2 inhibits translation was investigated by monitoring the effects of 15d-PGJ2 on translational initiation complex formation as shown FIG. 7A. eIF4G is a scaffold protein that recruits eIF4E, eIF4A, eIF3, and PABP into the translational initiation complex. The effect of 15d-PGJ2 on the eIF4GI-eIF4A interaction was monitored by a co-immunoprecipitation assay. 293T cells were co-transfected with HA-eIF4B and FLAG-eIF4A1 (provided by Dr. Yongjun Dang and Dr. Jian Liu, Johns Hopkins). Cells were lysed then treated with 50 μM of PGE2 or 15d-PGJ2 at 30° C. for 1 hour. Immunoprecipitation was performed with an anti-FLAG antibody.

HeLa cells [2] = assay: In vivo [35S]-methionine labeling of newly synthesized proteins in HeLa cells; format: cell-based; conditions: FIG. 4A (30 minutes, concentrations) and FIG. 4B (90 μM, times)
Method: HeLa cells were treated with various agents and for various times, as indicated in […] and the brief description thereof. HeLa Cells on 60-mm culture dishes were then washed twice with phosphate-buffered saline (PBS) and incubated in methionine-free Dulbecco's Modified eagle's medium (DMEM) (BMS) medium for 1 hour. Cells were incubated for 30 minutes after supplementation with [^35S]-methionine ([^35S]-Met) ([…]; NEN Life Science Products), washed twice with ice-cold PBS, harvested, and then lysed with the NP-40 lysis buffer. The cell lysates were centrifuged and the protein concentrations in the cell lysates were measured using the Bradford assay method. To quantify newly synthesized proteins, cell lysates labeled with [^35S]-Met were precipitated with 10% trichloroacetic acid (TCA) (w/v), and the precipitated proteins were then dissolved in water and analyzed by a liquid scintillation assay (Packard).
As SG formation is accompanied by translational blockade, the effects of 15d-PGJ2 on protein synthesis were investigated. In FIG. 4A, HeLa cells grown on 60-mm dishes up to about 70-80% confluence were mock-treated (1) or treated with PGA1 (2, 3, and 4), 15d-PGJ2 (5 and 6 and 7), or PGE2 (8, 9, and 10) at the indicated concentrations in FIG. 4A for 30 minutes. Then in vivo labeling of newly synthesized proteins was performed as described above. 4200 CPM was obtained from the TCA-precipitated control sample (lane 1), and phosphorylated eIF2α levels were monitored by Western-blot analyses (bottom panel). In FIG. 4B, cells were mock-treated (1), treated with SA (400 μM) (2 and 3), with PGA1 (90 μM) (4-6), with 15d-PGJ2 (90 μM) (7-9), and with PGE2 (90 μM) (10-12) as indicated times. Newly synthesized proteins were measured as panel (A). 4500 CPM was obtained from the TCA-precipitated control sample (lane 1). Phosphorylated eIF2α levels were monitored by Western-blot analyses (bottom panel) and the obtained results are shown in FIG. 4B.

[3] = 30 minutes, TIA-1 antibody, FIG. 1A

T1 sequence (P60842 whole entry): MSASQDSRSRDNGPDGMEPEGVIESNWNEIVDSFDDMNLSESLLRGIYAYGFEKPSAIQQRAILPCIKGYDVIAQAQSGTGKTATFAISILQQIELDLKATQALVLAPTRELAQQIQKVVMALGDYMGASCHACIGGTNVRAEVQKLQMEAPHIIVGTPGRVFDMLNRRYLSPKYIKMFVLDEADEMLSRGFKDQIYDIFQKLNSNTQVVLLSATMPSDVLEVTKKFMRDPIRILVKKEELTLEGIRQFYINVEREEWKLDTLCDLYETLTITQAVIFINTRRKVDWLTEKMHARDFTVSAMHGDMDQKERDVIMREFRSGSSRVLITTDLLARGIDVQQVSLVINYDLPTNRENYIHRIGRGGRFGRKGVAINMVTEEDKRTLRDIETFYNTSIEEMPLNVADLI
T1 sequence (P23588 whole entry partner): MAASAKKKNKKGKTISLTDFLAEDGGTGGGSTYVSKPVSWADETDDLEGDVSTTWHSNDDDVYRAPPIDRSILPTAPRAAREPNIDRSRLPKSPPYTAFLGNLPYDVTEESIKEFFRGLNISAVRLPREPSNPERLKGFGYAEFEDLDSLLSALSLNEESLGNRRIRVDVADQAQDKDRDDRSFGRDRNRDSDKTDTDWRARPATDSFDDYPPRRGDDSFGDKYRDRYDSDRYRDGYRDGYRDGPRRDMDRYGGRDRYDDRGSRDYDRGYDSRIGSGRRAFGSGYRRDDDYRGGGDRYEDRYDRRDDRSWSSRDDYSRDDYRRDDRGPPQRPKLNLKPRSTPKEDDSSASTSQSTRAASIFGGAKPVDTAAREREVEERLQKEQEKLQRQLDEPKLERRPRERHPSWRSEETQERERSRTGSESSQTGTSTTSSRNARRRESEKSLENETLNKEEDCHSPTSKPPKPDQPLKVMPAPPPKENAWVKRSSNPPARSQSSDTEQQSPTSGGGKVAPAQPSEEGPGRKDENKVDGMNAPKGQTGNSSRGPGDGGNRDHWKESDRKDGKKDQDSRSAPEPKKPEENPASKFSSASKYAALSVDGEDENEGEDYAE

SMILES	SG formation (HeLa cells [1]; [3])	Co-precipitation of eIF4GI with eIF4A1 (eIF4GI-eIF4A interaction)	Total protein synthesis (35S-methionine labeling) (HeLa cells [2])	SG formation (HeLa cells [1]; 10 μM, 12-24 hours, FIG. 1D)	SG inducer strength compared (HeLa cells [1]; FIG. 1A panel b vs c)
CCCCC[C@H](O)/C=C/[C@H]1[C@H](O)CC(=O)[C@@H]1C/C=C\CCCC(=O)O [PGE2, prostaglandin E2]	did not induce SG formation	eIF4GI was co-precipitated with eIF4A1	did not block translation		
CCCCC/C=C/C=C1/C(=O)C=C[C@@H]1C/C=C\CCCC(=O)O [15d-PGJ2, 15-deoxy-delta 12,14-prostaglandin J2]	induced SG formation	eIF4GI was not co-precipitated with eIF4A1	inhibited by 15d-PGJ2 in a concentration-dependent manner	SGs were formed	stronger SG inducer than PGA1
